Measurements taken from patent US20170305981A1, “SYNTHETIC PEPTIDES” (The University of Chicago, priority 2014, published 2017).
Where “and” joins values, the source holds several entries; their conditions need not be identical. Equal values may be shown once. Entries after “also recorded” stand apart in the source; their conditions may differ.

How the values were obtained:
lipoprotein lipase (LpL) = experiment: Lipoprotein lipase (LpL) in vitro activity assay with fluorogenic TG substrate EnzChek; format: biochemical; details: for LpL stimulating activity of domain substitution peptides relative to AV199-232: knockout substitutions in AV199-232 domains
Procedure: FIG. 3A-C. Lipoprotein lipase (LpL) activity assay using a fluorogenic TG analog, EnzChek (Invitrogen). The enzyme reaction mix was composed of increasing concentrations of LpL in 100 μl Tris buffered saline (TBS), 1% BSA, pH 7.8, 0.015% Zwittergent 3-14 and 1 μM EnzChek substrate. Reaction was monitored by fluorescence (λex=482 nm, λem=515 nm) and the relative fluorescence units (RFU) against time plotted (A). BODIPY labeled fatty acid (BODIPY-FA) was used to determine product concentration generated with the lipase (B). Structure of the EnzChek substrate (E33955) which was purchased from Invitrogen Inc. (C).
To search for lipase stimulators, a lipase assay was employed using a commercially available fluorogenic-TG substrate (EnzChek) supplied by Molecular Probes (FIG. 3). The protocol was adapted from Basu et al., (Basu et al. (2011) J.Lipid Res. 52, 826-832; herein incorporated by reference in its entirety) with minor modifications in pH and detergent. For in vitro assays, LpL (SIGMA) was diluted to 0.12 μg/ml in 20 mM Tris-HCl, 150 mM NaCl, 1% BSA, 0.015% Zwittergent 3-14, pH 7.8, 1 μM EnzChek substrate, prepared in 96-well black microtiter plates. For some assays the plates were incubates at 37° C. for 10min. Detection was performed in a Synergy H1 Multi-Mode Reader using excitation/emission wavelengths of 482 nm and 515 nm, respectively. […] Moreover, the product produced could be quantified using BODIPY-C12 fatty acids to determine the molar rates of enzyme reaction. Since the assay uses a non-toxic substrate and a low amount of neutral detergent it is possible to use this assay with live cells (FIG. 4). The lipase activities assayed were sensitive to both the removal of lipase (HL) from the surface of hepatocytes (by a heparin pre-wash) and to apolipoproteins present in isolated lipoproteins, VLDL, LDL and HDL preparations.

LpL [1] = experiment: LpL enzyme kinetics (Vmax, Km) by Michaelis-Menten fitting; format: biochemical
Procedure: FIG. 9. […] Lipase reaction was performed with different substrate concentrations (0-25 μM) (A, C, D) to determine the kinetic parameters of LpL enzymatic activity, +/− VLDL (10 μg/ml) and +/− AV199-232 (2.5 μM). (B) The addition of VLDL reduced the enzymes affinity for substrate by 5.3-fold which is consistent with inhibition by apoC-III. […] Kinetic parameters were determined using GraphPad Prism software curve fitting to the Michaelis-Menten enzyme kinetic equation.
The influence of AV199-232 on the kinetic parameters of LpL activity (e.g., Vmax and Km) was investigated (FIG. 9A-B). […] This was due to the apoC-III content of VLDL. […] Also AV199-232 was functional in the presence of apoC-III in VLDL. The effect of different lipoproteins on LpL kinetics was compared (FIG. 9D).

[2] = Heparin binding (circular dichroism on addition of heparin)
Procedure: FIG. 10. AV199-232 is an a-helical peptide that binds heparin. Peptide folding and conformation was analyzed experimentally by circular dichroism spectroscopy (A) and calculated to be ˜42% α-helical which increased to ˜76% on binding heparin.
Given that there appeared to be a periodicity in the sequence of AV199-232 consisting of alternating polar and non-polar residues, the possibility that the peptide was folded into a amphipathic α-helix was investigated (FIG. 10). […] In silico analysis also predicted a high α-helical content. […] The amphipathic nature of the peptide was evident with polar residues and nonpolar residues (domain-L) organized to opposite sides of the helix. Domain-L is responsible for binding to VLDL. Domain-1, domain-2 and domain-H were also identified on the polar side.

LpL [3] = experiment: LpL activity in the presence of human plasma / plasma TG-rich lipoproteins; format: biochemical; details: normal and dyslipidemic plasma
Procedure: (§1) The removal of cell surface LpL with heparin reduced activity.
(§2) Plasma contains lipoproteins with apoC-III and ANGPT4, known inhibitors of LpL activity. However, LpL activity in live leukocytes was stimulated by AV199-232 (FIG. 23C). […] AV199-232 was incubated with whole plasma from normal and diabetic/dyslipidemic plasma and then the TG-rich lipoproteins (Lp) were isolated by PEG-8000 precipitation and added to LpL assays (30 μg/ml).

LpL in THP-1 macrophages = target: T1, LpL in THP-1 macrophages (Homo sapiens, UniProt P06858); experiment: Lipase activity in cultures of live THP-1 macrophages; format: cell-based; details: live THP-1 macrophages known to express LpL
T1 construct: endogenous in cells; host or cells: THP-1 macrophages
T1 sequence (P06858 28-475): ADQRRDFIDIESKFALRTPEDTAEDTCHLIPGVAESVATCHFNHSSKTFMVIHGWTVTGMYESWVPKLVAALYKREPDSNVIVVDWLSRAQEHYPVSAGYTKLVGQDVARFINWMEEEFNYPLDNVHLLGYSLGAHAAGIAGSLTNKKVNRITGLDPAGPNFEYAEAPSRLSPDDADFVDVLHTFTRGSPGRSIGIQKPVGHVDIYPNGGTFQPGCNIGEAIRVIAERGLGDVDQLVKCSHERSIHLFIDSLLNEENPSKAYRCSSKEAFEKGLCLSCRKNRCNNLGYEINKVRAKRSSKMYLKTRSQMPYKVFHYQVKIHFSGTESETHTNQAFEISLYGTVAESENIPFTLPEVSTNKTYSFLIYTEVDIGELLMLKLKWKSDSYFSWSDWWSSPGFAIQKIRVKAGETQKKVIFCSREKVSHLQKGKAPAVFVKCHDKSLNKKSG
Procedure: FIG. 8. Determining the minimum peptide sequence (A) harboring full lipase stimulating activity (B, D). […] Assays were performed by adding 10 μM of peptide to in vitro LpL assays (B) or to hepatocyte (HepG2) cell cultures (D). In 24 well tissue culture plates, cells were incubated for 1 hr at 37° C. in 200 μL TBS, 1.5% BSA, 0.2% zwittergent 3-14, 1μM EnzChek substrate. AV199-232 was also active in cultures of live THP-1 macrophages known to express LpL (C).

Leukocyte-LpL = target: T2, Leukocyte-LpL (Homo sapiens, UniProt P06858); experiment: LpL activity in live leukocytes isolated from fresh human blood; format: cell-based
T2 construct: endogenous in cells; host or cells: leukocytes isolated from fresh human blood
T2 sequence (P06858 28-475): T1 sequence (P06858 28-475)
Procedure: as §1, §2

VLDL = VLDL binding, complexes isolated by gel filtration on Sepharose CL-4B, then LpL assay
Procedure: VLDL (100 μg) was incubated with AV199-232 (50 μg) and complexes were isolated from free peptide by gel filtration on a Sepharose CL-4B column (FIG. 15A).

[4] = peptide added to LpL without VLDL, 10 μM
[5] = peptides 80 μg/ml preincubated with VLDL 20 μg/ml

With “AV250-288: peptide spanning residues 250-288 of apoA-V (DPQMLSEEVRQRLQAFRQDTYLQIAAFTRAIDQETEEVQ)” the “influence on LpL activity” value (lipoprotein lipase (LpL); in the presence of VLDL) was “Little or no stimulating activity; also recorded: did not” and the “influence on LpL activity” value (lipoprotein lipase (LpL); [4]) was “Little or no stimulating activity”.
For “DomLKO: peptide with domain L substitutions L10Q/L21Q/L29Q (ARLSRCVQVQSRKLTLKAKAQHARIQQNQDQLRE)”, the “LpL stimulating activity of domain substitution peptides relative to AV199-232” value (lipoprotein lipase (LpL)) was “moderate reduction in activity”.
With “AV199-232: 34-residue peptide, residues 199-232 of apoA-V; AV199-237 shortened by 5 residues (ARLSRCVQVLSRKLTLKAKALHARIQQNLDQLRE; listed as Homo sapiens)” the “increase of LpL's apparent affinity for substrate (Km improvement)” value (LpL [1]; AV199-232 2.5 μM + VLDL 10 μg/ml) was ~8 fold and 7.8 fold, the “changes in the Vmax and Km of LpL” value (LpL [1]; AV199-232 2.5 μM without VLDL) was “only marginal changes” and the heparin binding [2] was “heparin binding activity; also recorded: binds heparin”. The “stimulation of LpL activity in the presence of plasma” value (LpL [3]) was “stimulates LpL activity”, the “lipase stimulating activity of the shortened peptide relative to AV199-237” value (lipoprotein lipase (LpL); 10 μM, in vitro LpL assays and HepG2 cell cultures) was “harbored full activity and was actually somewhat more potent; also recorded: enhancement of activity” and the “lipase stimulating activity in THP-1 macrophages” value (LpL in THP-1 macrophages) was “active”. The “stimulation of LpL activity in live leukocytes” value (Leukocyte-LpL) was “responds; also recorded: stimulated; also recorded: responsive”, the VLDL binding (VLDL; VLDL 100 μg incubated with AV199-232 50 μg) was “binds VLDL” and the “LpL stimulation by the isolated VLDL:AV199-232 complex” value (VLDL; void fraction (Vo) of gel filtration added to LpL) was “effective at stimulating LpL activity; also recorded: stimulates LpL activity”.
With “Dom1KO: AV199-232 with domain 1 substitutions R12Q/D30S (ARLSRCVQVLSQKLTLKAKALHARIQQNLSQLRE)” the “LpL stimulating activity of domain substitution peptides relative to AV199-232” value (lipoprotein lipase (LpL)) was “significant reduction”.
In the case of “AV199-237: synthetic peptide spanning residues 199-237 of mature human apoA-V (ARLSRCVQVLSRKLTLKAKALHARIQQNLDQLREELSRA; listed as Homo sapiens)”, the “influence on LpL activity” value (lipoprotein lipase (LpL); in the presence of VLDL) is reported as “exceeded that seen with an apoC-II peptide (C-II50-79); also recorded: stimulated LpL activity in the presence of VLDL”, the “influence on LpL activity” value (lipoprotein lipase (LpL); [4]) is reported as “no change in activity; also recorded: did not increase enzyme activity” and the “stimulation of LpL activity” value (lipoprotein lipase (LpL); peptide incubated with VLDL before adding to LpL, 10 μM) is reported as about 4 fold.
In the case of “SEQ ID NO: 23: AV-H/K with L10F and L29F substitutions (ARLSRCVQVFSRKLTLKAKALKARIQQNFDQLRE; Mutated wild-type peptide)”, the “improvement in lipase stimulating activity relative to AV-H/K” value (lipoprotein lipase (LpL); [5]) is reported as “about 2 fold”.
For “Dom1(E34K): AV199-232 with E34K substitution in domain 1 (ARLSRCVQVLSRKLTLKAKALHARIQQNLDQLRK)”, the “LpL stimulating activity of domain substitution peptides relative to AV199-232” value (lipoprotein lipase (LpL)) was “did not influence AV199-232 activity”.
In the case of “SEQ ID NO: 22: AV-H/K with L10Q, L21Q and L29Q substitutions (ARLSRCVQVQSRKLTQKAKALKARIQQNQDQLRE; Mutated wild-type peptide)”, the “lipase stimulating activity relative to AV-H/K” value (lipoprotein lipase (LpL); [5]) is reported as “reduced lipase stimulating activity”.
In the case of “Dom2KO: AV199-232 with domain 2 substitutions K13Q/K17Q (ARLSRCVQVLSRQLTLQAKALHARIQQNLDQLRE)”, the “LpL stimulating activity of domain substitution peptides relative to AV199-232” value (lipoprotein lipase (LpL)) is reported as “significant reduction”.
With “AV-H/K: AV199-232 peptide with H in domain-H replaced with a K (ARLSRCVQVLSRKLTLKAKALKARIQQNLDQLRE; Mutated wild-type peptide)” the “stimulation of LpL activity in the presence of plasma” value (LpL [3]) was “stimulates LpL”.
